Laboratory results from US11596623B2, “Methods for treating virus infection or proliferation” (HOWARD UNIVERSITY, priority 2018, dated 2023).
Where two headings read alike, the source gives them in different places.

Tests used:
HEp-2 cells = assay: Trypan blue exclusion cell viability; type: cell-based; conditions: 24-hour treatment
Protocol: In order to assess whether the compounds are producing any toxicity that can led to the cell deaths, we evaluated the cell viability by the trypan blue exclusion method. As long-term inhibition of RACK1 expression has been reported to cell cycle arrest, we limited our experimental treatments to 24 h and evaluated the cell viability of almost full confluent cells after 24 h of compound treatment.
In table 2, the viability of cells was measured with Trypan blue exclusion assay in a Cellometer (Nexcelom, Lawrence, Mass.). The percentage survival of the compound treated cells was evaluated along with the DMSO treated cells. The values represent the mean±SE of three separate well based replicates.

HSV1-Luc (R8411) = assay: HSV1-Luc bioluminescence luciferase assay in HEp-2 cells; type: cell-based, HSV-1; parameters: HSV-1 proliferation (luciferase signal): dose or concentration left out as unconfirmed
Protocol: (A) Hep-2 cells were incubated with the indicated compounds in the presence of HSV1-Luc virus at a concentration of 4×10^6 pfu/ml media. (B) Quantification of the luciferase signal from the samples in panel (A). Signals from three replicates from two separate experiments were combined to generate the average and the standard error bar.
(§1) To 80-90% confluent HEp-2 cells, HSV-1-Luc (R8411) are added at a concentration of 2×10e^6 pfu/ml along with indicated concentration of inhibitor compounds. After the described incubation period, luciferase activity is evaluated from bioluminescence images acquired by a Perkin Elmer IVIS Spectrum Imaging system immediately after adding luciferase substrate (D-luciferin, Gold Bio Technology) at a concentration of 400 μg/mL in medium. Bioluminescence intensity in different wells is quantified in units of photons per second per centimetre squared per steradian (p/s/cm^2/sr) by drawing a polygonal region of interest over the signals in images using Living Image 3.0 software (Caliper Life Sciences).
as §1, with “cells, HSV1-Luc” for “cells, HSV-1-Luc”, “(R8411) was” for “(R8411) are”, “activity was” for “activity is”, “wells was” for “wells is”, “per centimeter” for “per centimetre”
To visualize the effect of the drugs on the proliferation of HSV-1, a luciferase tagged HSV-1 F strain expressing luciferase (R8411 mutant) under the control of ICP27 promoter was obtained [Horsburgh B C, Hubinette M M, Tufaro F. Genetic manipulation of herpes simplex virus using bacterial artificial chromosomes. Methods Enzymol. 1999; 306:337-52]. […] The same samples after incubation of 48 h were used to assay for HSV-1 ICP0 and RACK1 protein expression (B of FIG. 5). Depletion of RACK1 by the compounds correlated with the depletion of the viral ICP0 protein confirming earlier results shown in B of FIG. 3.

IRES (β-Globin) = assay: Dual-luciferase reporter assay, β-Globin control construct; type: cell-based
Protocol: Dual-luciferase reporter constructs were generously provided from (Plank et al., 2013) and (Carvajal et al., 2016). In the plasmid constructs, renilla luciferase (Rluc) translation is cap-dependent, while the firefly luciferase (Flue) translation depends on HIV-1 IRES. The Fluc/Rluc ratio was measured in the presence or the absence of the compounds in HEK293T cells transfected with the dual-luciferase plasmid bearing either Beta-globin, HCV, HIV-1 gag, EMVC or HIV-1 ladder sequences. Cells get transfected with the plasmids using Lipofectamine 3000 Reagent, from Thermo Fisher Scientific. Then treated with RACK1 inhibitors and its analogs (SD-29, and SD-29-14) at different concentrations; 1 μM, 10 μM, and […]. Moreover, the cells were treated with Dimethyl sulfoxide (DMSO) as a vehicle control or left untreated. Luc-Pair™ Duo-Luciferase Assay Kit 2.0 Kit (Genecopoeia) was used to measure the luciferase activity. HEK293T cells were grown to reach no more than 90% confluent at the desired time of lysate preparation.
For measuring Fluc/Rluc ratio and bioluminescence, Both Renilla and Firefly substrates were added to the same wells containing respective plasmid constructs. After the described incubation period, luciferase activity was evaluated from bioluminescence images acquired by a Perkin Elmer IVIS Spectrum Imaging system immediately after adding luciferase substrates. The Spectral Un-mixing options integrated in the software was used to un-mix the respective luminescence from Renilla and Firefly. Bioluminescence intensity in each well was quantified in units of photons per second per centimeter squared per steradian (p/s/cm^2/sr) by drawing a polygonal region of interest over the signals in images using Living Image 3.0 software (Caliper Life Sciences).
Dual-luciferase reporter constructs were used to determine if the drugs targeting RACK1 affect IRES-mediated translation. Renilla luciferase (Rluc) translation dependent on cap and the firefly luciferase (Fluc) translation dependent on HIV-1 IRES were utilized. The Fluc/Rluc ratio was measured in the presence or the absence of the compounds in the HEK293T cells transfected with the dual-luciferase plasmid bearing the predicted IRES from HIV-1 driving a firefly luciferase reporter gene and a cap dependent renilla luciferase from the same construct. As a control, HCV IRES is used within the dual luciferase construct (instead of HIV-1) as a positive control as HCV is known to use IRES solely for translating its transcripts, while Beta-globin plasmid was used as a negative control. The dual-luciferase reporters, as used here, are previously reported where HIV-1 IRES were reported (Plank, T. D., J. T. Whitehurst, and J. S. Kieft, Cell type specificity and structural determinants of IRES activity from the 5′ leaders of different HIV-1 transcripts. Nucleic Acids Res, 2013. 41(13): p. 6698-714; Carvajal, F., et al., Structural domains within the HIV-1 mRNA and the ribosomal protein S25 influence cap-independent translation initiation. FEBS J, 2016. 283(13): p. 2508-27.) The cells were transfected with the plasmids using Lipofectamine, then treated with RACK1 inhibitors (SD-29 and SD29-14) at different concentrations (1, 10, and 50 μM). Control cells were treated with DMSO or left untreated. SV40 promoter produces a capped and poly-adenylated dicistronic message. Translation of the upstream cistron (renilla luciferase, RLUC) is cap dependent, whereas translation of the downstream cistron (firefly luciferase, FLUC) occurs cap independently. The dual luciferase constructs are depicted in FIG. 1A. IRES activity is measured by calculating the ratio of FLUC to RLUC light production (RLUs) (Plank et al., 2013).

Structure (SMILES)	HEp-2 Cell viability, Mean (HEp-2 cells; 10 μM) [%]	HEp-2 Cell viability, Mean (HEp-2 cells; 100 μM) [%]	HSV-1 proliferation (luciferase signal) (HSV1-Luc (R8411))	FLUC (IRES (β-Globin); 1 μM) [p/s/cm^2/sr]	FLUC/RLUC Ratio (IRES (β-Globin); 1 μM)	RLUC (IRES (β-Globin); 1 μM) [p/s/cm^2/sr]	FLUC (IRES (β-Globin); 10 μM) [p/s/cm^2/sr]	FLUC/RLUC Ratio (IRES (β-Globin); 10 μM)	RLUC (IRES (β-Globin); 10 μM) [p/s/cm^2/sr]	FLUC (IRES (β-Globin); 50 μM) [p/s/cm^2/sr]	FLUC/RLUC Ratio (IRES (β-Globin); 50 μM)	RLUC (IRES (β-Globin); 50 μM) [p/s/cm^2/sr]	efficacy compared with acyclovir (HSV1-Luc (R8411); HSV1-Luc, acyclovir 10 μM)	HSV-1 proliferation (luciferase signal) (HSV1-Luc (R8411); co-treatment of compound and virus, dose series)	concentration from which inhibition of HSV-1 (HSV1-Luc) proliferation starts (HSV1-Luc (R8411); in vitro, luciferase signal) [µM]	efficacy relative to SD-29 (HSV1-Luc (R8411); starting concentration, HSV-1 luciferase signal) [times]
Nn1c(S)nnc1-c1ccc(F)cc1 [SD-29]	94.0	92.7	much less efficacy	4.02E+04	0.068 ± 0.002	5.82E+05	3.52E+04	0.074 ± 0.006	4.70E+05	3.74E+04	0.093 ± 0.004	4.01E+05				
Nn1c(S)nnc1-c1cc(Cl)cc(Cl)c1 [SD29-14]	97.5	93.7	significantly inhibited the HSV-1 proliferation	2.21E+04	0.067 ± 0.002		2.72E+04	0.062 ± 0.003	4.39E+05	1.74E+04	0.067 ± 0.004	2.62E+05	slightly higher level	strong inhibition of HSV-1 proliferation in a dose dependent manner	1	100
